From ChEMBL document CHEMBL3507680, “University of Dundee, Gates Library screen for HepG2 cell viability”

Test: Human HepG2 cell viability assay in 384 well format
Assay type: toxicity, cell-based
Design: dose 125 nL, time 70.5 hour; concentration not given beside the values
Details: HepG2 cells, read-out: Inhibition

| SMILES | cytotoxicity at 70.5 h |
| --- | --- |
| CC1CN(c2ncnc3ccccc23)CCO1 (stereo unspecified) | 10% |
| Cc1ccc(CN2CCOC(C)(c3cnn(C)c3)C2)cc1 (stereo unspecified) | -2.83% |
| CCOCCS(=O)(=O)Cc1ccn(-c2cccc(F)c2)n1 | -10.1% |
| CCOC(=O)C1CCN(C(=O)CN2CCCC2c2ccsc2)CC1 (stereo unspecified) | -3.85% |
| COCCn1cc(C(=O)N2CCCC2c2cc(C)on2)c2ccccc21 (stereo unspecified) | 1.11% |
| O=C(Nc1ccccc1)C1CCN(C(=O)COc2ccccc2F)CC1 | 7.69% |
| O=C(NCC(O)c1ccc(F)cc1F)c1cccc(F)c1 (stereo unspecified) | -2.46% |
| Cc1nc(NC(=O)C(C)N2CCN(c3ncccn3)CC2)sc1C (stereo unspecified) | -8.18% |
| O=C(NCCNc1cnccn1)N1CC=C(c2ccccc2)CC1 | -8.49% |
| COc1c(C)cnc(CNC(=O)c2cnc3onc(C)c3c2)c1C | 12.5% |
| CN(C)CCOc1ccc(CNC(=O)c2cccc3[nH]ncc23)cc1 | 9.57% |
| Cc1noc(C)c1CCC(=O)N1CCCC(n2ccnc2C)C1 (stereo unspecified) | 3.81% |
| CC(C)Nc1cccc(C(=O)NCC(O)c2ccc(F)cc2F)c1 (stereo unspecified) | -1.19% |
| O=C(NCC1CCN(CCc2ccccc2)C1)c1c(F)cccc1F (stereo unspecified) | 14.6% |
| CC(C)c1nc(C2CCCN(c3nccc(C(F)(F)F)n3)C2)no1 (stereo unspecified) | -2.52% |
| COC(=O)c1ccc(Cl)c(NS(=O)(=O)c2cn(C)cn2)c1 | 9.09% |
| CC(=O)NCc1ccc(C(=O)N2CCCC(n3cncn3)C2)o1 (stereo unspecified) | 20.5% |
| CCCc1n[nH]c(C2CN(C(=O)CCCn3ccnc3C)CCO2)n1 (stereo unspecified) | 4.08% |
| CC(C)c1cnc(CN(C)C2CCN(CCc3ccccn3)C2)o1 (stereo unspecified) | 13.1% |
| CCNC(=O)CN1CCN(c2ccnc3c(F)ccc(F)c23)CC1 | -7.66% |
| O=C(CN1CCN(c2ccnc3c(F)ccc(F)c23)CC1)NC1CC1 | 0.111% |
| NC(=O)c1cnc(NC2CCN(c3ccccc3)CC2)c(Cl)c1 | -1.28% |
| O=C(c1csc(-c2ncccn2)n1)N1CCN(C2CCCC2)CC1 | -5.27% |

| SMILES | cytotoxicity at 70.5 h |
| --- | --- |
| O=C(c1csc(-c2cccs2)n1)N1CCN2CCCCC2C1 (stereo unspecified) | -2.54% |
| COCCOCCC(=O)Nc1c(-c2ccc(F)cc2)ncn1C | 17% |
| COc1ccc(-c2cnc(CN3CCCC3Cn3cncn3)o2)cc1 (stereo unspecified) | -6.4% |
| CC(C)CC(=O)Nc1c(-c2ccc(F)cc2)ncn1C | 9.48% |
| CC(C)OCCC(=O)Nc1c(-c2ccc(F)cc2)ncn1C | 2.71% |
| Cc1[nH]c(=O)sc1S(=O)(=O)N1CCCC1C(=O)NCc1ccsc1 (stereo unspecified) | -4.24% |
| COc1ncc(C)cc1NC(=O)COc1ccccc1F | 11.7% |
| COCc1csc(NC(=O)NCc2ccsc2)n1 | -4.84% |
| Cc1nsc(NCCNS(=O)(=O)c2cccc(Cl)c2)n1 | 9.23% |
| Cc1c(NCC(C)(C)C)cccc1C(=O)NCc1ncnn1C | 14.6% |
| COc1cccc(OCC(=O)Nc2cc(C)cnc2OC)c1 | 2.85% |
| O=C(c1csc(-c2ncccn2)n1)N1CCN2CCCCC2C1 (stereo unspecified) | -5.52% |
| CC(CNS(C)(=O)=O)c1ccc(F)c(F)c1 (stereo unspecified) | -1.08% |
| CN(CCNc1cc(N2CCCC2CO)ncn1)Cc1ccccc1 (stereo unspecified) | -3.62% |
| c1cncc(CN(Cc2ccc(-n3ccnc3)cc2)CC2CCCO2)c1 (stereo unspecified) | 13.2% |
| CS(=O)(=O)NC1CCN(c2cccc(F)c2C#N)CC1 | -16.5% |
| O=C(COC1CCCC1)NCCCn1nc2ccccn2c1=O | -16.2% |
| O=C(NCC1CC1)C1CSCN1S(=O)(=O)c1ccccc1F (stereo unspecified) | 4.99% |
| N#Cc1ccc(N2CCC(NS(=O)(=O)c3cccs3)CC2)c(F)c1 | -9.83% |
| Cc1cccc(S(=O)(=O)N2CSCC2C(=O)NCC2CC2)c1 (stereo unspecified) | -2.32% |
| Cc1nc(C)n(CC2CCCN2CC(=O)NCCc2cccs2)n1 (stereo unspecified) | -15.5% |
| Cc1cc(N2CCC(N(C)C(=O)c3sccc3C)CC2)nc(C)n1 | -4.75% |
| O=C(CCc1ccc(Cl)s1)N1CCCC(N2CCNC2=O)C1 (stereo unspecified) | -17.9% |
